Assay results as given in patent US20080058330A1, “Compounds and Combinations Thereof for Inhibiting Beta-Amyloid Production and Methods of Use Thereof” (Roskamp Research LLC, priority 2006, published 2008).

Assays:
7W WT APP751 CHO cells [1] = experiment: Screening of NF-kB activation inhibitors, Aβ1-40 and Aβ1-42 ELISA (Example 3); format: cell-based, Chinese hamster; settings: 24 hours (FIG. 6)
Description: Each compound was dissolved in DMSO. 7W WT APP751 CHO cells overexpressing APP751 were plated into 96-well culture plates in 200 μL of culture medium. Each compound from the library was added to confluent cells to a final concentration of 500 nM, 1 μM, 5 μM, 10 μM and/or 30 μM. After 24 hours of treatment, culture medium was collected and dissolved 10-fold and 2-fold for measuring the level of Aβ1-40 and Aβ1-42, respectively. Aβ1-40 and Aβ1-42 were determined using commercially available ELISAs (Biosource, CA), following the recommendations of the manufacturer.

7W WT APP751 CHO cells [2] = experiment: Screening of dihydropyridine compounds (Maybridge), Aβ1-40 and Aβ1-42 ELISA (Example 2); format: cell-based, Chinese hamster; settings: 30 μM, 24 hours (FIG. 5A, 5B)
Description: Dihydropyridine compounds were obtained from Maybridge (England). Each compound was dissolved in DMSO. 7W WT APP751 CHO cells overexpressing APP751 were plated into 96-well culture plates in 200 μL of culture medium. Each compound from the library was added to confluent cells to a final concentration of 30 μM. After 24 hours of treatment, culture medium was collected and dissolved 10-fold and 2-fold for measuring the level of Aβ1-40 and Aβ1-42, respectively. Aβ1-40 and Aβ1-42 were determined using commercially available ELISAs (Biosource, CA), following the recommendations of the manufacturer.

Nc1ccc2ncnc(NCCc3ccc(Oc4ccccc4)cc3)c2c1 [6-amino-4-(4-phenoxyphenylethylamino)quinazoline]
significantly decreased: concentration of Aβ1-40 compared to controls (7W WT APP751 CHO cells [1]; 500 nM) | concentration of Aβ1-42 compared to controls (7W WT APP751 CHO cells [1]; 500 nM) | concentration of total β-amyloid compared to controls (7W WT APP751 CHO cells [1]; 500 nM) | concentration of Aβ1-40 compared to controls (7W WT APP751 CHO cells [1]; 5 μM) | concentration of Aβ1-42 compared to controls (7W WT APP751 CHO cells [1]; 5 μM) | concentration of total β-amyloid compared to controls (7W WT APP751 CHO cells [1]; 5 μM)

COC(=O)C1=C(C)NC(C)=C(C(=O)OCCCN2CCC(c3ccccc3)(c3ccccc3)CC2)[C@H]1c1cccc([N+](=O)[O-])c1.Cl [(S)-(+)-niguldipine]
significantly decreased: concentration of Aβ1-40 compared to controls (7W WT APP751 CHO cells [1]; 1 μM) | concentration of Aβ1-42 compared to controls (7W WT APP751 CHO cells [1]; 1 μM) | concentration of total β-amyloid compared to controls (7W WT APP751 CHO cells [1]; 1 μM) | concentration of Aβ1-40 compared to controls (7W WT APP751 CHO cells [1]; 5 μM) | concentration of Aβ1-42 compared to controls (7W WT APP751 CHO cells [1]; 5 μM) | concentration of total β-amyloid compared to controls (7W WT APP751 CHO cells [1]; 5 μM) | concentration of Aβ1-40 compared to controls (7W WT APP751 CHO cells [1]; 30 μM) | concentration of Aβ1-42 compared to controls (7W WT APP751 CHO cells [1]; 30 μM) | concentration of total β-amyloid compared to controls (7W WT APP751 CHO cells [1]; 30 μM)

CCOC(=O)C1=C(C)NC(C)=C(C(=O)OCC)C1c1ccc(Cl)cc1 [BTB 14328, diethyl 4-(4-chlorophenyl)-2,6-dimethyl-1,4-dihydropyridine-3,5-dicarboxylate]
significantly decreased: concentration of Aβ1-40 compared to controls (7W WT APP751 CHO cells [2]) | concentration of Aβ1-42 compared to controls (7W WT APP751 CHO cells [2]) | concentration of total β-amyloid (Aβ1-40+Aβ1-42) compared to controls (7W WT APP751 CHO cells [2])

CCOC(=O)C1=C(C)NC(C)=C(C(=O)OCC)C1c1ccc(-c2cc(C(F)(F)F)cc(C(F)(F)F)c2)o1 [CD 04170, diethyl 4-{5-[3,5-di(trifluoromethyl)phenyl]-2-furyl}-2,6-dimethyl-1,4-dihydro-pyridine-3,5-dicarboxylate]
significantly decreased: concentration of Aβ1-40 compared to controls (7W WT APP751 CHO cells [2]) | concentration of Aβ1-42 compared to controls (7W WT APP751 CHO cells [2]) | concentration of total β-amyloid (Aβ1-40+Aβ1-42) compared to controls (7W WT APP751 CHO cells [2])

O=C1C=C(c2ccccc2)CN(C2CCCCC2)C1=O [HTS 01512, 1-cyclohexyl-5-phenyl-1,6-dihydro-2,3-pyridinedione]
significantly decreased: concentration of Aβ1-40 compared to controls (7W WT APP751 CHO cells [2]) | concentration of Aβ1-42 compared to controls (7W WT APP751 CHO cells [2]) | concentration of total β-amyloid (Aβ1-40+Aβ1-42) compared to controls (7W WT APP751 CHO cells [2])

N#Cc1c(-c2cn(-c3ccccc3)nc2-c2ccccc2)cc(-c2ccccc2)[nH]c1=O [HTS 07578, 4-(1,3-diphenyl-1H-pyrazol-4-yl)-2-oxo-6-phenyl-1,2-dihydro-3-pyridinecarbonitrile]
significantly decreased: concentration of Aβ1-40 compared to controls (7W WT APP751 CHO cells [2]) | concentration of Aβ1-42 compared to controls (7W WT APP751 CHO cells [2]) | concentration of total β-amyloid (Aβ1-40+Aβ1-42) compared to controls (7W WT APP751 CHO cells [2])

N#Cc1c(-c2cccs2)cc(-c2ccccc2)[nH]c1=O [HTS 10306, 2-oxo-6-phenyl-4-(2-thienyl)-1,2-dihydro-3-pyridinecarbonitrile]
significantly decreased: concentration of Aβ1-40 compared to controls (7W WT APP751 CHO cells [2]) | concentration of Aβ1-42 compared to controls (7W WT APP751 CHO cells [2]) | concentration of total β-amyloid (Aβ1-40+Aβ1-42) compared to controls (7W WT APP751 CHO cells [2])

NC(=O)Nc1sc(-c2ccc(F)cc2)cc1C(N)=O [IKK-2 Inhibitor IV]
significantly decreased: concentration of Aβ1-40 compared to controls (7W WT APP751 CHO cells [1]; 500 nM) | concentration of Aβ1-42 compared to controls (7W WT APP751 CHO cells [1]; 500 nM) | concentration of total β-amyloid compared to controls (7W WT APP751 CHO cells [1]; 500 nM) | concentration of Aβ1-40 compared to controls (7W WT APP751 CHO cells [1]; 5 μM) | concentration of Aβ1-42 compared to controls (7W WT APP751 CHO cells [1]; 5 μM) | concentration of total β-amyloid compared to controls (7W WT APP751 CHO cells [1]; 5 μM)

CCOC(=O)C1=C(C)NC(C)=C(C(=O)OCC)C1c1ccc(Br)cc1 [JFD 01209, diethyl 4-(4-bromophenyl)-2,6-dimethyl-1,4-dihydropyridine-3,5-dicarboxylate]
significantly decreased: concentration of Aβ1-40 compared to controls (7W WT APP751 CHO cells [2]) | concentration of Aβ1-42 compared to controls (7W WT APP751 CHO cells [2]) | concentration of total β-amyloid (Aβ1-40+Aβ1-42) compared to controls (7W WT APP751 CHO cells [2])

CCOC(=O)C1=C(C)NC(C)=C(C(=O)OCC)C1c1ccc([N+](=O)[O-])cc1 [JFD 03266, diethyl 2,6-dimethyl-4-(4-nitrophenyl)-1,4-dihydropyridine-3,5-dicarboxylate]
significantly decreased: concentration of Aβ1-40 compared to controls (7W WT APP751 CHO cells [2]) | concentration of total β-amyloid (Aβ1-40+Aβ1-42) compared to controls (7W WT APP751 CHO cells [2])

COC(=O)C1=C(C)NC(C)=C(C(=O)OCCCN2CCC(c3ccccc3)(c3ccccc3)CC2)[C@@H]1c1cccc([N+](=O)[O-])c1.Cl [R-niguldipine]
significantly decreased: concentration of Aβ1-40 compared to controls (7W WT APP751 CHO cells [1]; 1 μM) | concentration of Aβ1-42 compared to controls (7W WT APP751 CHO cells [1]; 1 μM) | concentration of total β-amyloid compared to controls (7W WT APP751 CHO cells [1]; 1 μM) | concentration of Aβ1-40 compared to controls (7W WT APP751 CHO cells [1]; 5 μM) | concentration of Aβ1-42 compared to controls (7W WT APP751 CHO cells [1]; 5 μM) | concentration of total β-amyloid compared to controls (7W WT APP751 CHO cells [1]; 5 μM) | concentration of Aβ1-40 compared to controls (7W WT APP751 CHO cells [1]; 30 μM) | concentration of Aβ1-42 compared to controls (7W WT APP751 CHO cells [1]; 30 μM) | concentration of total β-amyloid compared to controls (7W WT APP751 CHO cells [1]; 30 μM)

C[C@@H]1CC[C@H]2[C@@H](C)C(=O)O[C@@H]3O[C@@]4(C)CC[C@@H]1[C@]32OO4 [artemisinin]
significantly decreased: concentration of Aβ1-40 compared to controls (7W WT APP751 CHO cells [1]; 1 μM) | concentration of Aβ1-42 compared to controls (7W WT APP751 CHO cells [1]; 1 μM) | concentration of total β-amyloid compared to controls (7W WT APP751 CHO cells [1]; 1 μM) | concentration of Aβ1-40 compared to controls (7W WT APP751 CHO cells [1]; 30 μM) | concentration of Aβ1-42 compared to controls (7W WT APP751 CHO cells [1]; 30 μM) | concentration of total β-amyloid compared to controls (7W WT APP751 CHO cells [1]; 30 μM)

CC1=C(O)C(=O)C=C2C1=CC=C1[C@@]2(C)CC[C@@]2(C)[C@@H]3C[C@](C)(C(=O)O)CC[C@]3(C)CC[C@]12C [celastrol]
significantly decreased: concentration of Aβ1-40 compared to controls (7W WT APP751 CHO cells [1]; 500 nM) | concentration of Aβ1-42 compared to controls (7W WT APP751 CHO cells [1]; 500 nM) | concentration of total β-amyloid compared to controls (7W WT APP751 CHO cells [1]; 500 nM) | concentration of Aβ1-40 compared to controls (7W WT APP751 CHO cells [1]; 5 μM) | concentration of Aβ1-42 compared to controls (7W WT APP751 CHO cells [1]; 5 μM) | concentration of total β-amyloid compared to controls (7W WT APP751 CHO cells [1]; 5 μM)

C=C1C(=O)O[C@@H]2C[C@@]3(C)CCCC(=C)[C@@H]3C[C@H]12 [isohelenin]
significantly decreased: concentration of Aβ1-40 compared to controls (7W WT APP751 CHO cells [1]; 5 μM) | concentration of Aβ1-42 compared to controls (7W WT APP751 CHO cells [1]; 5 μM) | concentration of total β-amyloid compared to controls (7W WT APP751 CHO cells [1]; 5 μM) | concentration of Aβ1-40 compared to controls (7W WT APP751 CHO cells [1]; 10 μM) | concentration of Aβ1-42 compared to controls (7W WT APP751 CHO cells [1]; 10 μM) | concentration of total β-amyloid compared to controls (7W WT APP751 CHO cells [1]; 10 μM)

C=C1C(=O)[C@@]23[C@H](O)C[C@@H]4C(C)(C)CC[C@H](O)[C@@]4(CO)[C@@H]2CC[C@@H]1[C@H]3O [kamebakaurin]
significantly decreased: concentration of Aβ1-40 compared to controls (7W WT APP751 CHO cells [1]; 10 μM) | concentration of Aβ1-42 compared to controls (7W WT APP751 CHO cells [1]; 10 μM) | concentration of total β-amyloid compared to controls (7W WT APP751 CHO cells [1]; 10 μM) | concentration of Aβ1-40 compared to controls (7W WT APP751 CHO cells [1]; 30 μM) | concentration of Aβ1-42 compared to controls (7W WT APP751 CHO cells [1]; 30 μM) | concentration of total β-amyloid compared to controls (7W WT APP751 CHO cells [1]; 30 μM)
